Experimental data published in patent publication US20190185417A1, “NOVEL ANTIBIOTICS” (priority 2016, published 2019).

Tests used:
Type in all cases: cell-based
[1] = tested on: Haemophilus influenzae (ATCC 49247); experiment: MIC by broth microdilution; conditions: Table 2, Example 2
Method: (§1) The antibacterial potency of the test article(s) was measured using the in vitro broth microdilution assay under assay conditions described by the Clinical and Laboratory Standards Institute. […] The test substance was dissolved in 100% DMSO (unless stated below), suspended completely by sonication or vortexing, diluted by 2-fold serial titrations in the same vehicle, for a total of 11 test concentrations. A 4 μL aliquot of each dilution was added to 196 μL of broth medium seeded with the organism suspension in wells of a 96 well plate (bacterial count: 2−8×10^5 colony forming units/mL final). The final volume was 200 μL in each well and the final DMSO concentration was 2 percent. Following incubation, the test plates were visually examined and wells were scored for growth or complete growth inhibition to define the minimum inhibitory concentration. Each test substance was evaluated in duplicate and the results below are the duplicate test values. Vehicle-control and an active reference agent were used as blank and positive controls, respectively.

[2] = tested on: Acinetobacter baumannii (ATCC 17978); experiment: MIC by broth microdilution; conditions: Table 2, Example 2
Method: as §1, with “DMSO,” for “DMSO (unless stated below),”, “incubation for 1 day at 36° C.,” for “incubation,”, “were reported as” for “below are”, “respectively. Microorganisms tested were Acinetobacter baumannii (ATCC 17978), Enterococcus faecalis (ATCC 29212), Enterococcus faecium VanA (ATCC 700221), Escherichia coli (ATCC 25922), Escherichia coli efflux defective DEL-tolC (JW5503), Heamophilus influenzae (ATCC 49247), Klebsiella pneumoniae (ATCC 43816), Pseudomonas aeruginosa (ATCC 27853), Pseudomonas aeruginosa MDR (NTUH-974), Staphylococcus aureus (ATCC 29213), Staphylococcus aureus MRSA (ATCC 33591) and Streptococcous pneumoniae (ATCC 46919). H. influenzae was grown in Haemophilus Test Medium and S. pneumoniae was grown in cation adjusted Muller-Hinton Broth II with 5% lysed horse blood. All other microorganisms were grown in cation adjusted Muller-Hinton Broth II.” for “respectively.”
as §1

[3] = tested on: Klebsiella pneumoniae (ATCC 43816); experiment: MIC by broth microdilution; conditions: Table 2, Example 2
Method: as §1, with “DMSO,” for “DMSO (unless stated below),”, “incubation for 1 day at 36° C.,” for “incubation,”, “were reported as” for “below are”, “respectively. Microorganisms tested were Acinetobacter baumannii (ATCC 17978), Enterococcus faecalis (ATCC 29212), Enterococcus faecium VanA (ATCC 700221), Escherichia coli (ATCC 25922), Escherichia coli efflux defective DEL-tolC (JW5503), Heamophilus influenzae (ATCC 49247), Klebsiella pneumoniae (ATCC 43816), Pseudomonas aeruginosa (ATCC 27853), Pseudomonas aeruginosa MDR (NTUH-974), Staphylococcus aureus (ATCC 29213), Staphylococcus aureus MRSA (ATCC 33591) and Streptococcous pneumoniae (ATCC 46919). H. influenzae was grown in Haemophilus Test Medium and S. pneumoniae was grown in cation adjusted Muller-Hinton Broth II with 5% lysed horse blood. All other microorganisms were grown in cation adjusted Muller-Hinton Broth II.” for “respectively.”
as §1

[4] = tested on: Pseudomonas aeruginosa (ATCC 27853); experiment: MIC by broth microdilution; conditions: Table 2, Example 2
Method: as §1, with “DMSO,” for “DMSO (unless stated below),”, “incubation for 1 day at 36° C.,” for “incubation,”, “were reported as” for “below are”, “respectively. Microorganisms tested were Acinetobacter baumannii (ATCC 17978), Enterococcus faecalis (ATCC 29212), Enterococcus faecium VanA (ATCC 700221), Escherichia coli (ATCC 25922), Escherichia coli efflux defective DEL-tolC (JW5503), Heamophilus influenzae (ATCC 49247), Klebsiella pneumoniae (ATCC 43816), Pseudomonas aeruginosa (ATCC 27853), Pseudomonas aeruginosa MDR (NTUH-974), Staphylococcus aureus (ATCC 29213), Staphylococcus aureus MRSA (ATCC 33591) and Streptococcous pneumoniae (ATCC 46919). H. influenzae was grown in Haemophilus Test Medium and S. pneumoniae was grown in cation adjusted Muller-Hinton Broth II with 5% lysed horse blood. All other microorganisms were grown in cation adjusted Muller-Hinton Broth II.” for “respectively.”
as §1

[5] = tested on: Pseudomonas aeruginosa, MDR (NTUH-974); experiment: MIC by broth microdilution; conditions: Table 2, Example 2
Method: as §1, with “DMSO,” for “DMSO (unless stated below),”, “incubation for 1 day at 36° C.,” for “incubation,”, “were reported as” for “below are”, “respectively. Microorganisms tested were Acinetobacter baumannii (ATCC 17978), Enterococcus faecalis (ATCC 29212), Enterococcus faecium VanA (ATCC 700221), Escherichia coli (ATCC 25922), Escherichia coli efflux defective DEL-tolC (JW5503), Heamophilus influenzae (ATCC 49247), Klebsiella pneumoniae (ATCC 43816), Pseudomonas aeruginosa (ATCC 27853), Pseudomonas aeruginosa MDR (NTUH-974), Staphylococcus aureus (ATCC 29213), Staphylococcus aureus MRSA (ATCC 33591) and Streptococcous pneumoniae (ATCC 46919). H. influenzae was grown in Haemophilus Test Medium and S. pneumoniae was grown in cation adjusted Muller-Hinton Broth II with 5% lysed horse blood. All other microorganisms were grown in cation adjusted Muller-Hinton Broth II.” for “respectively.”
as §1

[6] = tested on: Escherichia coli (ATCC 25922); experiment: MIC by broth microdilution; conditions: Table 2, Example 2
Method: as §1, with “DMSO,” for “DMSO (unless stated below),”, “incubation for 1 day at 36° C.,” for “incubation,”, “were reported as” for “below are”, “respectively. Microorganisms tested were Acinetobacter baumannii (ATCC 17978), Enterococcus faecalis (ATCC 29212), Enterococcus faecium VanA (ATCC 700221), Escherichia coli (ATCC 25922), Escherichia coli efflux defective DEL-tolC (JW5503), Heamophilus influenzae (ATCC 49247), Klebsiella pneumoniae (ATCC 43816), Pseudomonas aeruginosa (ATCC 27853), Pseudomonas aeruginosa MDR (NTUH-974), Staphylococcus aureus (ATCC 29213), Staphylococcus aureus MRSA (ATCC 33591) and Streptococcous pneumoniae (ATCC 46919). H. influenzae was grown in Haemophilus Test Medium and S. pneumoniae was grown in cation adjusted Muller-Hinton Broth II with 5% lysed horse blood. All other microorganisms were grown in cation adjusted Muller-Hinton Broth II.” for “respectively.”
as §1

[7] = tested on: Escherichia coli, efflux defective DEL-tolC (JW5503); experiment: MIC by broth microdilution; conditions: Table 2, Example 2
Method: as §1, with “DMSO,” for “DMSO (unless stated below),”, “incubation for 1 day at 36° C.,” for “incubation,”, “were reported as” for “below are”, “respectively. Microorganisms tested were Acinetobacter baumannii (ATCC 17978), Enterococcus faecalis (ATCC 29212), Enterococcus faecium VanA (ATCC 700221), Escherichia coli (ATCC 25922), Escherichia coli efflux defective DEL-tolC (JW5503), Heamophilus influenzae (ATCC 49247), Klebsiella pneumoniae (ATCC 43816), Pseudomonas aeruginosa (ATCC 27853), Pseudomonas aeruginosa MDR (NTUH-974), Staphylococcus aureus (ATCC 29213), Staphylococcus aureus MRSA (ATCC 33591) and Streptococcous pneumoniae (ATCC 46919). H. influenzae was grown in Haemophilus Test Medium and S. pneumoniae was grown in cation adjusted Muller-Hinton Broth II with 5% lysed horse blood. All other microorganisms were grown in cation adjusted Muller-Hinton Broth II.” for “respectively.”
as §1

Gram-negative bacteria = experiment: MIC by broth microdilution, overall statement in words; conditions: Example 2, statement in words
Method: as §1, with “DMSO,” for “DMSO (unless stated below),”, “incubation for 1 day at 36° C.,” for “incubation,”, “were reported as” for “below are”, “respectively. Microorganisms tested were Acinetobacter baumannii (ATCC 17978), Enterococcus faecalis (ATCC 29212), Enterococcus faecium VanA (ATCC 700221), Escherichia coli (ATCC 25922), Escherichia coli efflux defective DEL-tolC (JW5503), Heamophilus influenzae (ATCC 49247), Klebsiella pneumoniae (ATCC 43816), Pseudomonas aeruginosa (ATCC 27853), Pseudomonas aeruginosa MDR (NTUH-974), Staphylococcus aureus (ATCC 29213), Staphylococcus aureus MRSA (ATCC 33591) and Streptococcous pneumoniae (ATCC 46919). H. influenzae was grown in Haemophilus Test Medium and S. pneumoniae was grown in cation adjusted Muller-Hinton Broth II with 5% lysed horse blood. All other microorganisms were grown in cation adjusted Muller-Hinton Broth II.” for “respectively.”
as §1

Compound | MIC [1] [µg/mL] | MIC [2] [µg/mL] | MIC [3] [µg/mL] | MIC [4] [µg/mL] | MIC [5] [µg/mL] | MIC [6] [µg/mL] | MIC [7] [µg/mL] | effectiveness against the bacteria of Table 2 (Gram-negative bacteria)
NC(=O)c1ccc(CCc2cc(CCc3ccc(C(N)=O)cc3)cc(CCc3ccc(C(N)=O)cc3)c2)cc1 [Compound 6 (TSB030)] | >32.0 | >32.0 | >32.0 | >32.0 | >32.0 | >32.0 | >32.0 | –
CN(C)Cc1ccc(/C=C/c2cc(/C=C/c3ccc(CC(=O)O)cc3)cc(/C=C/c3ccc(CC(=O)O)cc3)c2)cc1 [Compound 16] | >128 | >128 | >128 | >128 | >128 | >128 | >128 | ineffective
CC(=O)ONc1ccc(CCc2cc(CCc3ccc(NOC(C)=O)cc3)cc(CCc3ccc(NOC(C)=O)cc3)c2)cc1 [Compound 9 (TSB016)] | >32.0 | >32.0 | >32.0 | >32.0 | >32.0 | >32.0 | >32.0 | –
